Paper PMC12415923

test: Two-fold Williamson etherification: BINOL bis(chloroethoxyethyl ether) (Me/H/iPr-6_2) + BINOL bisphenol (Me/H/iPr-2), 1:1, Cs2CO3 (3.2 equiv); ring closure = phenoxide O-alkylation by alkyl chloride; settings: the molecule shown is the open-chain precursor; 42-membered ring; MeCN; 9.0 mM; 85.0 °C; 6.0 h

Row | SMILES | ring closure, isolated yield
1 | COCOc1c(-c2ccc(OCCOCCCl)cc2)cc2ccccc2c1-c1c(OCOC)c(-c2ccc(OCCOCCOc3c(C(C)C)cc(-c4cc5ccccc5c(-c5c(OCOC)c(-c6cc(C(C)C)c(O)c(C(C)C)c6)cc6ccccc56)c4OCOC)cc3C(C)C)cc2)cc2ccccc12 [(S,S)-HiPr-M2_2] | 72.7%
2 | COCOc1c(-c2ccc(O)cc2)cc2ccccc2c1-c1c(OCOC)c(-c2ccc(OCCOCCOc3ccc(-c4cc5ccccc5c(-c5c(OCOC)c(-c6ccc(OCCOCCCl)cc6)cc6ccccc56)c4OCOC)cc3)cc2)cc2ccccc12 [H-M2_2] | 77.8%
3 | COCOc1c(-c2cc(C)c(O)c(C)c2)cc2ccccc2c1-c1c(OCOC)c(-c2cc(C)c(OCCOCCOc3c(C)cc(-c4cc5ccccc5c(-c5c(OCOC)c(-c6cc(C)c(OCCOCCCl)c(C)c6)cc6ccccc56)c4OCOC)cc3C)c(C)c2)cc2ccccc12 [Me-M2_2] | 59.4%
4 | COCOc1c(-c2ccc(OCCOCCCl)cc2)cc2ccccc2c1-c1c(OCOC)c(-c2ccc(OCCOCCOc3c(C(C)C)cc(-c4cc5ccccc5c(-c5c(OCOC)c(-c6cc(C(C)C)c(O)c(C(C)C)c6)cc6ccccc56)c4OCOC)cc3C(C)C)cc2)cc2ccccc12 [(R,S)-HiPr-M2_2 ((R)-H unit, (S)-iPr unit)] | 48.9%
5 | COCOc1c(-c2cc(C(C)C)c(O)c(C(C)C)c2)cc2ccccc2c1-c1c(OCOC)c(-c2cc(C(C)C)c(OCCOCCOc3c(C(C)C)cc(-c4cc5ccccc5c(-c5c(OCOC)c(-c6cc(C(C)C)c(OCCOCCCl)c(C(C)C)c6)cc6ccccc56)c4OCOC)cc3C(C)C)c(C(C)C)c2)cc2ccccc12 [iPr-M2_2] | 76.5%

test: Two-fold Williamson etherification: 3,3'-bis(4-hydroxyaryl)-BINOL-MOM diol (Me/H/iPr-2) + oligoethylene glycol bistosylate (1 equiv), Cs2CO3 (ca. 2-2.5 equiv); ring closure = phenoxide O-alkylation by tosylate; settings: the molecule shown is the open-chain precursor; 30-membered ring; MeCN; 1.0 mM; 85.0 °C

Row | SMILES | ring closure, isolated yield
6 | COCOc1c(-c2cc(C(C)C)c(O)c(C(C)C)c2)cc2ccccc2c1-c1c(OCOC)c(-c2cc(C(C)C)c(OCCOCCOCCOCCOCCOS(=O)(=O)c3ccc(C)cc3)c(C(C)C)c2)cc2ccccc12 [iPr-M1_5] | 19.6%
7 | COCOc1c(-c2ccc(O)cc2)cc2ccccc2c1-c1c(OCOC)c(-c2ccc(OCCOCCOCCOCCOCCOS(=O)(=O)c3ccc(C)cc3)cc2)cc2ccccc12 [H-M1_5] | 11%
8 | COCOc1c(-c2cc(C)c(O)c(C)c2)cc2ccccc2c1-c1c(OCOC)c(-c2cc(C)c(OCCOCCOCCOCCOCCOS(=O)(=O)c3ccc(C)cc3)c(C)c2)cc2ccccc12 [Me-M1_5] | 21.1%

same assay, conditions: the molecule shown is the open-chain precursor; 33-membered ring; MeCN; 1.0 mM; 85.0 °C

Row | SMILES | ring closure, isolated yield
9 | COCOc1c(-c2cc(C)c(O)c(C)c2)cc2ccccc2c1-c1c(OCOC)c(-c2cc(C)c(OCCOCCOCCOCCOCCOCCOS(=O)(=O)c3ccc(C)cc3)c(C)c2)cc2ccccc12 [Me-M1_6] | 53.7%
10 | COCOc1c(-c2ccc(O)cc2)cc2ccccc2c1-c1c(OCOC)c(-c2ccc(OCCOCCOCCOCCOCCOCCOS(=O)(=O)c3ccc(C)cc3)cc2)cc2ccccc12 [H-M1_6] | 29.7%
11 | COCOc1c(-c2cc(C(C)C)c(O)c(C(C)C)c2)cc2ccccc2c1-c1c(OCOC)c(-c2cc(C(C)C)c(OCCOCCOCCOCCOCCOCCOS(=O)(=O)c3ccc(C)cc3)c(C(C)C)c2)cc2ccccc12 [iPr-M1_6] | 41.2%

same assay, conditions: the molecule shown is the open-chain precursor; 36-membered ring; MeCN; 1.0 mM; 85.0 °C

Row | SMILES | ring closure, isolated yield
12 | COCOc1c(-c2ccc(O)cc2)cc2ccccc2c1-c1c(OCOC)c(-c2ccc(OCCOCCOCCOCCOCCOCCOCCOS(=O)(=O)c3ccc(C)cc3)cc2)cc2ccccc12 [H-M1_7] | 32.1%
13 | COCOc1c(-c2cc(C)c(O)c(C)c2)cc2ccccc2c1-c1c(OCOC)c(-c2cc(C)c(OCCOCCOCCOCCOCCOCCOCCOS(=O)(=O)c3ccc(C)cc3)c(C)c2)cc2ccccc12 [Me-M1_7] | 75%
14 | COCOc1c(-c2cc(C(C)C)c(O)c(C(C)C)c2)cc2ccccc2c1-c1c(OCOC)c(-c2cc(C(C)C)c(OCCOCCOCCOCCOCCOCCOCCOS(=O)(=O)c3ccc(C)cc3)c(C(C)C)c2)cc2ccccc12 [iPr-M1_7] | 45.5%

same assay, conditions: the molecule shown is the open-chain precursor; 39-membered ring; MeCN; 1.0 mM; 85.0 °C

Row | SMILES | ring closure, isolated yield
15 | COCOc1c(-c2cc(C)c(O)c(C)c2)cc2ccccc2c1-c1c(OCOC)c(-c2cc(C)c(OCCOCCOCCOCCOCCOCCOCCOCCOS(=O)(=O)c3ccc(C)cc3)c(C)c2)cc2ccccc12 [Me-M1_8] | 38.2%
16 | COCOc1c(-c2cc(C(C)C)c(O)c(C(C)C)c2)cc2ccccc2c1-c1c(OCOC)c(-c2cc(C(C)C)c(OCCOCCOCCOCCOCCOCCOCCOCCOS(=O)(=O)c3ccc(C)cc3)c(C(C)C)c2)cc2ccccc12 [iPr-M1_8] | 53.3%
17 | COCOc1c(-c2ccc(O)cc2)cc2ccccc2c1-c1c(OCOC)c(-c2ccc(OCCOCCOCCOCCOCCOCCOCCOCCOS(=O)(=O)c3ccc(C)cc3)cc2)cc2ccccc12 [H-M1_8] | 40.3%
